Type in all cases: functional, cell-based
What all share (conditions): Homo sapiens

Test [1] relates to ATH-8 cell line. The experiment in a line: Antiviral activity against HIV-1 using CD4+ ATH8 cells at a concentration of 25 uM; No detectable activity.
The test system of test [2] is ATH-8 cell line. Briefly: Antiviral activity against HIV-1 using CD4+ ATH8 cells at a concentration of 5 uM; No detectable activity.
Test [3] deals with ATH-8 cell line. The experiment in a line: Antiviral activity against HIV-1 using CD4+ ATH8 cells at a concentration of 25 uM; moderately toxic.

With `COP(=O)(O[C@H]1C[C@H](n2cc(C)c(=O)[nH]c2=O)O[C@@H]1CO)[Se]C[C@H]1O[C@@H](n2cc(C)c(=O)[nH]c2=O)C[C@@H]1O` (some centres undefined), the Activity entry with ATH-8 cell line [1] and in the test on ATH-8 cell line [2] was “No activity” throughout.

On to `Cc1cn([C@H]2C[C@H](OP(=O)(O)[Se]C[C@H]3O[C@@H](n4cc(C)c(=O)[nH]c4=O)C[C@@H]3O)[C@@H](CO)O2)c(=O)[nH]c1=O`, for which the Activity result in the test on ATH-8 cell line [3] was “Toxic”; in the test on ATH-8 cell line [2], “No activity”.

Source of the values: ChEMBL document CHEMBL1149937, “A new class of dinucleotide analogues. The synthesis of 3-O-thymidylyl(5-deoxy-5-selene-thymidylyl)-Se-phosphoroselenolate, its O-methyl ester and methanephosphonate derivatives” (Bioorg Med Chem Lett, 1994).
